Test results published in the NIST ThermoML archive (doi:10.1016/j.jct.2016.12.029).

Conditions: Gas, Buoyancy - hydrostatic balance with magnetic suspension - one sinker

C=C(F)C(F)(F)F [2,3,3,3-tetrafluoro-1-propene]
Conditions	mass density [kg/m3]
265.46 K, 101.2 kPa	5.404
265.48 K, 207.2 kPa	11.507
270.36 K, 101 kPa	5.279
270.38 K, 164.6 kPa	8.792
270.38 K, 250.3 kPa	13.798
275.39 K, 106.2 kPa	5.448
275.4 K, 208.6 kPa	11.064
275.42 K, 303.7 kPa	16.657
280.28 K, 103.6 kPa	5.208
280.29 K, 176.6 kPa	9.076
280.29 K, 274 kPa	14.527
280.29 K, 356.2 kPa	19.43
285.27 K, 258.8 kPa	13.34
285.28 K, 104.7 kPa	5.162
285.28 K, 164.2 kPa	8.23
285.28 K, 358.5 kPa	19.078
290.38 K, 102.2 kPa	4.937
290.39 K, 184.5 kPa	9.113
290.4 K, 308.8 kPa	15.792
290.4 K, 421.2 kPa	22.298
295.4 K, 101.7 kPa	4.829
295.4 K, 196.9 kPa	9.565
295.4 K, 400.6 kPa	20.565
295.4 K, 600.7 kPa	32.885
295.41 K, 305.3 kPa	15.255
295.41 K, 510.2 kPa	27.092
300.2 K, 668.8 kPa	36.434
300.21 K, 108 kPa	5.039
300.21 K, 218.9 kPa	10.489
300.21 K, 324 kPa	15.933
300.21 K, 439.4 kPa	22.291
300.21 K, 545.8 kPa	28.564
